Results as given in patent publication US10494332B2, “Protein tyrosine phosphatases or SHP2 inhibitors and uses thereof” (Indiana University Research and Technology Corporation, priority 2015, dated 2019).
pIC50: −log10 of the molar value.

Assays:
Format in all cases: biochemical
[1] = target: T1, Laforin (Homo sapiens, UniProt O95278); assay: PTP inhibition assay (pNPP); settings: for pIC50: pNPP at Km, pH 7.0, 25° C., read-out: IC50 Laforin
T1 sequence (O95278 1-331): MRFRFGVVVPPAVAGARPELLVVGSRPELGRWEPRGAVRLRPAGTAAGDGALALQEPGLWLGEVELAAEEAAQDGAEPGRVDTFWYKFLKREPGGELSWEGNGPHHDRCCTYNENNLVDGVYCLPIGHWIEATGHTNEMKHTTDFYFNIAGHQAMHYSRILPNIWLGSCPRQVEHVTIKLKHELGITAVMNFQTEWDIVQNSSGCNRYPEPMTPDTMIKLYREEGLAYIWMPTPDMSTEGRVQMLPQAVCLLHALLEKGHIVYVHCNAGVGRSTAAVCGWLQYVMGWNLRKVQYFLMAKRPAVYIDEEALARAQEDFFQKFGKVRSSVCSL

[2] = target: T2, PEST (Homo sapiens, UniProt Q05209); assay: PTP inhibition assay (pNPP); settings: pNPP at Km, pH 7.0, 25° C.; read-out: IC50 PEST
T2 sequence (Q05209 1-780): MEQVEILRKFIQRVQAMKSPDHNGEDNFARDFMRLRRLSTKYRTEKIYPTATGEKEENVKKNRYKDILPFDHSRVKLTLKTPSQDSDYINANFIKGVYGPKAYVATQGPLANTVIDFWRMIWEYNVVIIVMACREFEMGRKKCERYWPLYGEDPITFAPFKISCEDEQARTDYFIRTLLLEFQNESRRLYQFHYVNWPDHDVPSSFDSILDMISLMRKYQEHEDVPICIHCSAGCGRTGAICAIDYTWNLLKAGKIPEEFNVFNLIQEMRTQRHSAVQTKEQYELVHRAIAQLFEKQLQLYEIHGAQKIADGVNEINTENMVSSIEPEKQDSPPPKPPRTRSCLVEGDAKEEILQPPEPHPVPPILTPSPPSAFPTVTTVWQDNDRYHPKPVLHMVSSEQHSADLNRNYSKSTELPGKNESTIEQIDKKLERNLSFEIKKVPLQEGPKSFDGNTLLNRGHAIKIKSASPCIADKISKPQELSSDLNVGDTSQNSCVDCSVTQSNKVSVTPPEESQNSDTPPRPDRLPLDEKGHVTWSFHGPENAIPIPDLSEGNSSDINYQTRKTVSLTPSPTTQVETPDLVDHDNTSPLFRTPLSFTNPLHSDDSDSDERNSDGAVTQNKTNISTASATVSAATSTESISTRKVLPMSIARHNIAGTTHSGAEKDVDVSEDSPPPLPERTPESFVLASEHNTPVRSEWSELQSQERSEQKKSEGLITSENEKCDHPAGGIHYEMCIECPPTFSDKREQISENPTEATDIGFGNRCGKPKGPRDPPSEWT

[3] = target: T3, LMWPTP (Homo sapiens, UniProt P24666); assay: PTP inhibition assay (pNPP)
T3 sequence (P24666 1-158): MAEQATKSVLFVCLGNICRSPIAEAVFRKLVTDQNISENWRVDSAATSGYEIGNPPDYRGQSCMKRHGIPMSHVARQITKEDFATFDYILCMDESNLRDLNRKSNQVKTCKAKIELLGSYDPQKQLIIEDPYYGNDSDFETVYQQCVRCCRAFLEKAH

[4] = target: SHP1 (Homo sapiens, UniProt P29350); assay: PTP inhibition assay (pNPP); settings: pNPP at Km, pH 7.0, 25° C.
SHP1, sequence (P29350 whole entry): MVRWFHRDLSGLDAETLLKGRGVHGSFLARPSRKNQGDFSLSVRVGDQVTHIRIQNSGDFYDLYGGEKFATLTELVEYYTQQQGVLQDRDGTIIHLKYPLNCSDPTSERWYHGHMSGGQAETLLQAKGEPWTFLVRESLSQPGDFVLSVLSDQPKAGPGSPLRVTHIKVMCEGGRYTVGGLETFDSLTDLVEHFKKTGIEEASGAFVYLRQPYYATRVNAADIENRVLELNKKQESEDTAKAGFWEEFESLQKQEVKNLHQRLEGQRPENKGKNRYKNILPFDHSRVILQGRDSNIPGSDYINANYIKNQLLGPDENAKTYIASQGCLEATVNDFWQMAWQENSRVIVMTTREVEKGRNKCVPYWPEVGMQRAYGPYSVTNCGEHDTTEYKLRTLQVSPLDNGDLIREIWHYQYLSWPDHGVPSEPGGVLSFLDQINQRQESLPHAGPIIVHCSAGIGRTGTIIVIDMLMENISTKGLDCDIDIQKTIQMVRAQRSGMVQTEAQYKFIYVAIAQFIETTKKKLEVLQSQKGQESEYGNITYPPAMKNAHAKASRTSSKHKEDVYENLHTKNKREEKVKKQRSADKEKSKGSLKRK

[5] = target: T4, STEP (Homo sapiens, UniProt P54829); assay: PTP inhibition assay (pNPP); settings: IC50 STEP, pNPP at Km, pH 7.0, 25° C.
T4 sequence (P54829 1-565): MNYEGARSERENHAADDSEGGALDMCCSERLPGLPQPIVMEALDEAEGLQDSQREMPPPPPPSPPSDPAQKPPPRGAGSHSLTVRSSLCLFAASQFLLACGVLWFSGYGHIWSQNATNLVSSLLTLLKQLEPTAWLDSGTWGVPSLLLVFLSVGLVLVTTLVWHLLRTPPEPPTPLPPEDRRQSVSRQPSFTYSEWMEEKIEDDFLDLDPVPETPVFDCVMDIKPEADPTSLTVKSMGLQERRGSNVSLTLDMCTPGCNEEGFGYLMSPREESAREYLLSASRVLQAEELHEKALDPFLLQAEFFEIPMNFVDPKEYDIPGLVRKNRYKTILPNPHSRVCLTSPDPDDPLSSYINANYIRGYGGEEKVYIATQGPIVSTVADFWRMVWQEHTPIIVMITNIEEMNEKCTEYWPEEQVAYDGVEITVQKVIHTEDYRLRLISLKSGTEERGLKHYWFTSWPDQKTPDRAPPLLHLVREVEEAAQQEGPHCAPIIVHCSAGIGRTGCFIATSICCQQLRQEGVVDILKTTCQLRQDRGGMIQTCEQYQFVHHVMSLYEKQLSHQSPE

[6] = target: TbPTP1 (Trypanosoma brucei brucei, UniProt Q38AT7); assay: PTP inhibition assay (pNPP); settings: IC50 TbPTP1, pNPP at Km, pH 7.0, 25° C.
TbPTP1, sequence (Q38AT7 entry or part of it): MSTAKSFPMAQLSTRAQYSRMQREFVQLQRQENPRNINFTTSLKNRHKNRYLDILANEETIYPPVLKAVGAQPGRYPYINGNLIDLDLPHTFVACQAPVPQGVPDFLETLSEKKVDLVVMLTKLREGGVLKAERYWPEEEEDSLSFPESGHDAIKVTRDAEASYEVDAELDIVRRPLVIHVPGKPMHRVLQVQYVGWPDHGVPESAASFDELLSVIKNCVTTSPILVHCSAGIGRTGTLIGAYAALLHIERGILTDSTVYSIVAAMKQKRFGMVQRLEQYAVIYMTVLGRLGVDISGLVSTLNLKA

[7] = target: T5, VHX (Homo sapiens, UniProt Q9NRW4); assay: PTP inhibition assay (pNPP); settings: IC50 VHX, pNPP at Km, pH 7.0, 25° C.
T5 sequence (Q9NRW4 1-184): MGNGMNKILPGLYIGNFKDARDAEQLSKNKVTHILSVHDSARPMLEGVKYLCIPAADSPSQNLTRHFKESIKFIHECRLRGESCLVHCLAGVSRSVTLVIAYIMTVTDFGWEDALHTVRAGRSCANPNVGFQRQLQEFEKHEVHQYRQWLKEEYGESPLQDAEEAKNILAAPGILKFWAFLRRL

[8] = target: T6, LYP (Homo sapiens, UniProt Q9Y2R2); assay: PTP inhibition assay (pNPP); settings: pNPP at Km, pH 7.0, 25° C.
T6 sequence (Q9Y2R2 1-807): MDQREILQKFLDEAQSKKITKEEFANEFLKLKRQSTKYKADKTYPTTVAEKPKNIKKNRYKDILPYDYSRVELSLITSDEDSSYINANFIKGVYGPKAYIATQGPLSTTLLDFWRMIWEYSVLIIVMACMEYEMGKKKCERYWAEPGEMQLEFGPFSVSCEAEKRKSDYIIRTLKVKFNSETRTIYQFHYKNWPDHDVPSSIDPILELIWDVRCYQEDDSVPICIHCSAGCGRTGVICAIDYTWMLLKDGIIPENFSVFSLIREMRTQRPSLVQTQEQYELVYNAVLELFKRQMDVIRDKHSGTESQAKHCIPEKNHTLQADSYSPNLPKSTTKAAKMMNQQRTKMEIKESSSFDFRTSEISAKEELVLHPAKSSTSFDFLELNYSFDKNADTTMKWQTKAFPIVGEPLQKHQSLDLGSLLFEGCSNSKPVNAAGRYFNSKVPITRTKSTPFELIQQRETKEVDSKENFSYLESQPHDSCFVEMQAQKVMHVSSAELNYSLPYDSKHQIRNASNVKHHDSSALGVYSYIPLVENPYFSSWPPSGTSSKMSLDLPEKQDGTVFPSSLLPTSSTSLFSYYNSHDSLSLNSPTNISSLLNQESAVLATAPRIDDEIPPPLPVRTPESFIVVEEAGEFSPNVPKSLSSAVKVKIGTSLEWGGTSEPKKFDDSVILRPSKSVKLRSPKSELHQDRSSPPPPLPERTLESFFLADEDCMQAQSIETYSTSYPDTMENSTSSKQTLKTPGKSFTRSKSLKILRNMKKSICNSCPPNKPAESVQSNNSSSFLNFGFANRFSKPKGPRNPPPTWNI

[9] = target: T7, PTP1B (Homo sapiens, UniProt P18031); assay: PTP inhibition assay (pNPP); settings: pNPP at Km, pH 7.0, 25° C.
T7 sequence (P18031 1-435): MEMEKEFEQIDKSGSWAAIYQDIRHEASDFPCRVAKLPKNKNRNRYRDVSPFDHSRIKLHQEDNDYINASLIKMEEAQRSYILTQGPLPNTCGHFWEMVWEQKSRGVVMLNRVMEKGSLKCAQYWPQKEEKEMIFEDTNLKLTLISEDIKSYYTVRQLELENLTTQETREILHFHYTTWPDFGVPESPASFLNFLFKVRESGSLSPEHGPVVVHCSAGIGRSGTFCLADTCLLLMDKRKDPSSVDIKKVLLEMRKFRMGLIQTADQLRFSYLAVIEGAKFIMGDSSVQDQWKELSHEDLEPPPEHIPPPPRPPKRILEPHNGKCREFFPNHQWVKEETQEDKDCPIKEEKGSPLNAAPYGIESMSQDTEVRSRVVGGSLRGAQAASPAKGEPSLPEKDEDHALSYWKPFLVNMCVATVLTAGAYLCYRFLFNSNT

[10] = target: T8, SHP2 (Homo sapiens, UniProt Q06124); assay: SHP2 phosphatase inhibition assay (pNPP); settings: pNPP at Km, pH 7.0, 25° C.; read-out: IC50 SHP2
T8 sequence (Q06124 224-528): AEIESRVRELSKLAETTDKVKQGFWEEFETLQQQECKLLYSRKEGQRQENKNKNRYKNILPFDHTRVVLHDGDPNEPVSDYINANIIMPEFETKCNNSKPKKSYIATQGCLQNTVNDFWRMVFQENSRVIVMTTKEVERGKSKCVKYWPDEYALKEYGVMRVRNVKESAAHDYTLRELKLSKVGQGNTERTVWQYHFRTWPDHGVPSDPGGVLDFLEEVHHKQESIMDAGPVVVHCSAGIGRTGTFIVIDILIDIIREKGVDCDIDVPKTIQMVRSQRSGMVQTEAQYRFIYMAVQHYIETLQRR

[11] = target: T9, CD45 (Homo sapiens, UniProt P08575); assay: PTP inhibition assay (pNPP); settings: pNPP at Km, pH 7.0, 25° C.
T9 sequence (P08575 26-1306): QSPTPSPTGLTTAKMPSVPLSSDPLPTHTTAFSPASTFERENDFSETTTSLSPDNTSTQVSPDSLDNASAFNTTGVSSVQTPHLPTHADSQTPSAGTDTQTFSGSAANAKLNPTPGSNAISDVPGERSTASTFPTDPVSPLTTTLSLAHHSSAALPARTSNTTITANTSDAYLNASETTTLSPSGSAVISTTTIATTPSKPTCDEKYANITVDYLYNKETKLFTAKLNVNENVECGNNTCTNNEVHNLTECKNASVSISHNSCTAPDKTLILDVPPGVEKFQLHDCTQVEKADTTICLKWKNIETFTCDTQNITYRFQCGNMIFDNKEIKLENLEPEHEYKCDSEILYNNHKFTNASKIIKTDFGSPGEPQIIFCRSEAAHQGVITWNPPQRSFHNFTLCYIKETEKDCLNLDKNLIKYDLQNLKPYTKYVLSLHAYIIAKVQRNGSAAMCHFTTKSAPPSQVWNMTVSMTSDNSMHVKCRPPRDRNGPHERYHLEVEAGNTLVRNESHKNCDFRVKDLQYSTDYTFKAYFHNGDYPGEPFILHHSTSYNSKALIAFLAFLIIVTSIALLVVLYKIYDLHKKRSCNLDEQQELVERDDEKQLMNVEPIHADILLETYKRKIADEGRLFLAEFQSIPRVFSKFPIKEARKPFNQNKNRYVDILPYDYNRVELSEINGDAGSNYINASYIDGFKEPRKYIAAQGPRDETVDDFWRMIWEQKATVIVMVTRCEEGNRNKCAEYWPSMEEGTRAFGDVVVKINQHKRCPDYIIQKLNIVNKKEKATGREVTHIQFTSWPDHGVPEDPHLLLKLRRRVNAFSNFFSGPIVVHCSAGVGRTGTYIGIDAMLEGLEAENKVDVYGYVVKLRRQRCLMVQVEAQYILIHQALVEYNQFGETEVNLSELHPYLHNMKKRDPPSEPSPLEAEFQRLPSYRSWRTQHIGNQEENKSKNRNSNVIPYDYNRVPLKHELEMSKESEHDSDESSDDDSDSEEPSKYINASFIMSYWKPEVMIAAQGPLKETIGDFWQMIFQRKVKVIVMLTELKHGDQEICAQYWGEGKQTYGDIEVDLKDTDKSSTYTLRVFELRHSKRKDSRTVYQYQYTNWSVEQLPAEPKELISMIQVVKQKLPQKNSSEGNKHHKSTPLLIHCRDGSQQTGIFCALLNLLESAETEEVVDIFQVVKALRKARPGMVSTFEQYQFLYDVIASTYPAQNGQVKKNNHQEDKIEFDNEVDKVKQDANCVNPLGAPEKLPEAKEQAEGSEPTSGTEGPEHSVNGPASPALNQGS

Row | SMILES | pIC50 [1] | pIC50 [2] | pIC50 ([3]; pNPP at Km, pH 7.0, 25° C.) | pIC50 [4] | further results
1 | O=C(Nc1nnc(-c2ccccc2)s1)C(c1ccccc1)S(=O)(=O)O (centres unmarked) [Compound L319M73-2] | 5.89 | < 3.70 | 4.99 |  | Fold specificity for Laforin over LMPTP ([1]; ratio of IC50): 8 fold; Fold specificity for Laforin over other PTPs ([1]; ratio of IC50): 100 fold
2 | O=C(Nc1ccc(-n2ccnc2)cc1)C(c1ccccc1)S(=O)(=O)O (centres unmarked) [Compound L319M63] |  |  |  | < 3.70 | pIC50 [5]: < 4.00; pIC50 [6]: < 4.00; pIC50 ([3]; pH 7): 5.11; pIC50 [7]: < 3.70
3 | O=C(O)Cc1csc(NC(=O)C(c2ccccc2)S(=O)(=O)O)n1 (centres unmarked) [Compound L319N72] | 5.32 | < 3.70 | 4.01 |  | 
4 | O=C(Nc1nc2ccc(Cl)cc2s1)C(c1ccccc1)S(=O)(=O)O (centres unmarked) [Compound L319N15-06] | 5.64 |  | 5.25 |  | pIC50 [8]: 4.64; pIC50 [9]: 4.10; pIC50 [10]: 4.52; pIC50 [11]: 3.89
5 | CO[C@@]1(NC(=O)C(C(=O)O)c2ccc(O)cc2)C(=O)N2C(C(=O)O)=C(CSc3nnnn3C)CO[C@@H]21 (some centres unmarked) [moxalactam, reference compound] |  |  |  | 3.77 | 
